Structures can show the parent of a compound that is named as a salt. Where two headings read alike, the source gives them in different places.
Assays:
T. b. brucei [1] = test: Trypanosoma susceptibility assay (resazurin viability); assay type: cell-based; settings: for decrease of antitrypanosomal activity compared with 2: T. b. brucei, versus compound 2; for antitrypanosomal activity (in words): T. brucei in vitro; for potency lower compared to 31a: T. brucei, versus compound 31a
Experimental: (§1) The antiparasitic assays were carried out exactly as described in Blaazer et al.([39]) Metabolic stability, pharmacokinetics, acute mouse infection model results were collected as described previously.[21] All animal experiments were conducted in compliance with institutional guidelines and following approval by the Ethical Committee of the University of Antwerp, Belgium [UA-ECD 2014–96]. Female Swiss mice (15–20 g), were purchased from Janvier (Le Genest Saint Isle, France). […] Animals were treated PO b.i.d. for 5 days at 25 and 50 mg/kg 31c. For the SL-RNA qPCR experiments blood was collected sublingually and subjected to erythrocyte lysis before extracting RNA with the QIAamp RNA Blood Mini kit (Qiagen). […] Small pieces of fat, brain, and spleen tissue were excised and immediately transferred to RNA later (Qiagen) and incubated overnight at 4 °C. RNA extraction was performed as instructed in the RNeasy Mini Plus Kit manual (Qiagen). The one-step SensiFAST SYBR Hi-Rox PCR kit (Bioline USA Inc., via Gentaur Belgium BVBA, Kampenhout, Belgium) was used for the PCR with the following forward and reverse primers, respectively 5′-[…]-3′ and 5′-[…]-3′. An initial activation step of 10 min at 45 °C and 10 min at 95 °C was used, followed by the amplification step for 40 cycles (15 s at 95 °C, 15 s 50 °C and 15 s at 60 °C). At last, the melting curves were generated with an increment of 0.3 °C (15 s at 95 °C 1 min at 45 °C and 15 s at 95 °C). The PCR was run on the Step One Plus real-time PCR system (Applied Biosystems, California, USA). An additional qPCR was performed with the mouse housekeeping gene Eef2 to confirm successful RNA extraction.
In vitro experiments were carried out with the bloodstream form of the T. b. brucei Squib strain (suramin-sensitive). Parasites were routinely cultured in T25 culture flasks containing 10 mL of HMI-9 medium (Invitrogen) supplemented with 10% heat-inactivated fetal bovine serum (Life Technologies) and 2.5 μg/mL Geneticin (Life Technologies). MRC-5SV2 cells were cultured in MEM + Earl’s salts-medium, supplemented with 2 mM L-glutamine, 16.5 mM NaHCO3, and 5% inactivated fetal calf serum. All cultures and assays were conducted at 37 °C under an atmosphere of 5% CO2.
Parasites were counted in a KOVA counting chamber and diluted to 1.5 × 10^4 parasites/well of a 96-well plate (200 μL total volume), upon which the prediluted test compounds were added. Drug exposure covered a 72 h period without renewal of the culture medium. After 3 days of incubation, parasite growth was assessed fluorimetrically after addition of 50 μL of resazurin per well. After 6 h (T. b. rhodesiense) or 24 h (T. b. brucei) at 37 °C, fluorescence is measured (λex 550 nm, λem 590 nm). Parasite viability was assessed using the resazurin viability assay, and drug activity was calculated as percentage viability reduction compared to nontreated controls.

MRC-5 cells [2] = test: MRC-5SV2 cytotoxicity assay; assay type: cell-based; settings: Homo sapiens, MRC5, 72 h, read-out: pIC50 MRC-5 (converted)
Experimental: The synthesized analogues were tested against T. b. brucei, and inhibition of MRC-5 (human lung fibroblasts MRC-5SV40) cell proliferation was included as cytotoxicity control. […] Analogue 17 with an amino group instead of the carbonyl group was prepared to improve solubility for further modification. […] In vitro experiments were carried out with the bloodstream form of the T. b. brucei Squib strain (suramin-sensitive). […] All cultures and assays were conducted at 37 °C under an atmosphere of 5% CO2. […] Cell growth is compared to untreated-control wells (100% cell growth) and medium-control wells (0% cell growth). […] After 4 h at 37 °C, fluorescence is measured (λex 550 nm, λem 590 nm). The results are expressed as % reduction in cell growth/viability compared to control wells and an IC50 and an IC90 (50 and 90% inhibitory concentrations) are determined.

MRC-5 cells [3] = settings: Figure 1; previously reported series ref 21; cited from earlier work
T. b. brucei [4] = settings: 10 mg/kg IP s.i.d. for 5 days, positive control, n = 3
Experimental: as §1
Mice were allocated to groups of three and were infected by IP injection of 10^4T. brucei Squib 427 trypomastigotes. […] Suramin was included as a reference for T. brucei and injected IP s.i.d. for 5 days at 10 mg/kg. A PEG400 vehicle control group was also included. […] The first treatment was given 30 min prior to the artificial infection. Drug efficacy was evaluated by microscopic determination of the parasitemia in a blood drop collected from the tail vein at several time points until 63 days postinfection (dpi). […] An SL-RNA qPCR assay was performed in all surviving animals to confirm parasitological cure. For the SL-RNA qPCR, peripheral blood was subjected to erythrocyte lysis before extracting RNA with the QIAamp RNA Blood Mini kit (Qiagen). […] Small pieces of fat, brain, and spleen tissues were excised and immediately transferred to RNA later (Qiagen) and incubated overnight at 4 °C. RNA extraction was performed as instructed in the RNeasy Mini Plus Kit manual (Qiagen). […]

[5] = cytotoxicity, 3 days incubation, mean ± SD, n ≥ 2
[6] = Trypanosoma brucei, 72 h, T. b. brucei Squib bloodstream form, 72 h exposure, mean ± SD, n ≥ 2, read-out: pIC50 T. brucei (converted)
[7] = T. b. brucei Squib bloodstream form, 72 h exposure, mean ± SD, n ≥ 2

Compound | IC50 (MRC-5 cells [2]; [5]) | IC50 (T. b. brucei [1]; [6]) | other results
5-(4-Fluorophenyl)-3-isopropyl-1-(4-methoxyphenethyl)-1,6-dihydro-7H-pyrazolo[4,3-d]pyrimidin-7-one [21e] | – | – | IC50 (T. b. brucei [1]; read-out: IC50 against T. brucei): 3200 nM
CCn1nc(C(C)C)c2nc(-c3ccc(F)cc3)[nH]c(=O)c21 [21a, 1-Ethyl-5-(4-fluorophenyl)-3-isopropyl-1,6-dihydro-7H-pyrazolo[4,3-d]pyrimidin-7-one] | > 63.1 µM | 251 nM | –
CCCn1nc(C(C)C)c2nc(-c3ccc(F)cc3)[nH]c(=O)c21 [21b, 5-(4-Fluorophenyl)-3-isopropyl-1-propyl-1,6-dihydro-7H-pyrazolo[4,3-d]pyrimidin-7-one] | > 63.1 µM | 158 nM | –
CC(C)c1nn(C(C)C)c2c(=O)[nH]c(-c3ccc(F)cc3)nc12 [21c, 5-(4-Fluorophenyl)-1,3-diisopropyl-1,6-dihydro-7H-pyrazolo[4,3-d]pyrimidin-7-one] | > 63.1 µM | 6310 nM | decrease of antitrypanosomal activity compared with 2 (T. b. brucei [1]): ~100 fold
COCCn1nc(C(C)C)c2nc(-c3ccc(F)cc3)[nH]c(=O)c21 [21d, 5-(4-Fluorophenyl)-3-isopropyl-1-(2-methoxyethyl)-1,6-dihydro-7H-pyrazolo[4,3-d]pyrimidin-7-one] | > 63.1 µM | > 63100 nM | antitrypanosomal activity (in words) (T. b. brucei [1]): no antitrypanosomal activity at all
CC(C)c1nn(CCC(N)=O)c2c(=O)[nH]c(-c3ccc(F)cc3)nc12 [21f, 3-(5-(4-Fluorophenyl)-3-isopropyl-7-oxo-6,7-dihydro-1H-pyrazolo[4,3-d]pyrimidin-1-yl)propanamide] | > 63.1 µM | > 63100 nM | antitrypanosomal activity (in words) (T. b. brucei [1]): no antitrypanosomal activity
O=c1[nH]c(-c2ccc(F)cc2)nc2c(C3CCCCC3)n[nH]c12 [31b, 3-Cyclohexyl-5-(4-fluorophenyl)-1,6-dihydro-7H-pyrazolo[4,3-d]pyrimidin-7-one] | > 63.1 µM | – | potency lower compared to 31a (T. b. brucei [1]): 4 fold
CCc1n[nH]c2c(=O)[nH]c(-c3ccc(F)cc3)nc12 [31d, 3-Ethyl-5-(4-fluorophenyl)-1,6-dihydro-7H-pyrazolo[4,3-d]pyrimidin-7-one] | > 63.1 µM | 398 nM | –
Cc1n[nH]c2c(=O)[nH]c(-c3ccc(F)cc3)nc12 [31e, 5-(4-Fluorophenyl)-3-methyl-1,6-dihydro-7H-pyrazolo[4,3-d]pyrimidin-7-one] | > 63.1 µM | 25100 nM | –
O=c1[nH]c(-c2ccc(F)cc2)nc2cn[nH]c12 [31f, 5-(4-Fluorophenyl)-1,6-dihydro-7H-pyrazolo[4,3-d]pyrimidin-7-one Formate] | – | – | IC50 (MRC-5 cells [2]): > 63.1 µM; IC50 (T. b. brucei [1]; Trypanosoma brucei, 72 h, read-out: pIC50 T. brucei (converted)): > 63100 nM
CC(C)c1n[nH]c2c(=O)[nH]c(Cc3ccccc3)nc12 [compound 1, reference compound] | – | – | MRC-5 pIC50 (MRC-5 cells [3]): < 4.2
CC(C)c1[nH]nc2c(=O)n(C)c(-c3ccc(F)cc3)nc12 [compound 7, 5-(4-Fluorophenyl)-3-isopropyl-6-methyl-2,6-dihydro-7H-pyrazolo[4,3-d]pyrimidin-7-one] | > 63.1 µM | > 10000 nM | decrease of antitrypanosomal activity compared with 2 (T. b. brucei [1]): > 100 fold
CC(C)c1nn(C)c2c(=O)[nH]c(-c3ccc(F)cc3)nc12 [compound 11, 5-(4-Fluorophenyl)-3-isopropyl-1-methyl-1,6-dihydro-7H-pyrazolo[4,3-d]pyrimidin-7-one] | > 63.1 µM | < 100 nM | pIC50 T. brucei (T. b. brucei [1]; [7]): 7.1 ± 0.1
CC(C)c1c2nc(-c3ccc(F)cc3)[nH]c(=O)c2nn1C [compound 15, 5-(4-Fluorophenyl)-3-isopropyl-2-methyl-2,6-dihydro-7H-pyrazolo[4,3-d]pyrimidin-7-one] | > 63.1 µM | 1580 nM | decrease of antitrypanosomal activity compared with 2 (T. b. brucei [1]): 20 fold
CC(C)c1n[nH]c2c(=N)[nH]c(-c3ccc(F)cc3)nc12 [compound 17, 5-(4-Fluorophenyl)-3-isopropyl-1,6-dihydro-7H-pyrazolo[4,3-d]pyrimidin-7-imine] | 25.1 µM | > 10000 nM | decrease of antitrypanosomal activity compared with 2 (T. b. brucei [1]): > 100 fold
CC(C)c1nn(CCO)c2c(=O)[nH]c(-c3ccc(F)cc3)nc12 [compound 22, 5-(4-Fluorophenyl)-1-(2-hydroxyethyl)-3-isopropyl-1,6-dihydro-7H-pyrazolo[4,3-d]pyrimidin-7-one] | > 63.1 µM | 631 nM | IC50 (T. b. brucei [1]; Trypanosoma brucei, read-out: IC50 against T. brucei): 800 nM
O=c1[nH]c(-c2ccc(F)cc2)nc2c(-c3ccccc3)n[nH]c12 [compound 35, 5-(4-Fluorophenyl)-3-phenyl-1,6-dihydro-7H-pyrazolo[4,3-d]pyrimidin-7-one] | > 63.1 µM | < 100 nM | pIC50 T. brucei (T. b. brucei [1]; [7]): 7.3 ± 0.1; potency lower compared to 31a (T. b. brucei [1]): 4 fold
Cc1ccc(C(=O)Nc2ccc(S(=O)(=O)O)c3cc(S(=O)(=O)O)cc(S(=O)(=O)O)c23)cc1NC(=O)c1cccc(NC(=O)Nc2cccc(C(=O)Nc3cc(C(=O)Nc4ccc(S(=O)(=O)O)c5cc(S(=O)(=O)O)cc(S(=O)(=O)O)c45)ccc3C)c2)c1 [suramin, reference compound] | – | – | survival (T. b. brucei [4]): survived throughout the 60 days postinfection follow-up period without relapse

Source: paper PMC10895668, “Lead Optimization of the 5-Phenylpyrazolopyrimidinone NPD-2975 toward Compounds with Improved Antitrypanosomal Efficacy” (Journal of Medicinal Chemistry, 2024)
